Measurements as given in BigSolDB 2.1.

Cc1nc2cc(N)ccc2s1
solubility (mole fraction)
Details | 288.5 K | 293.5 K | 298.5 K | 303.5 K | 308.5 K | 313.5 K | 318.5 K | 323.5 K | 328.5 K
in ethanol | 0.00125 | 0.00129 | 0.00156 | 0.00164 | 0.00174 | 0.00194 | 0.0022 | 0.00253 | 0.00284
in water | 0.000191 | 0.000269 | 0.000311 | 0.000491 | 0.000534 | 0.000745 | 0.000872 | 0.000937 | 0.00113
